Results: patent US20030134859A1 (SANKYO COMPANY, LIMITED, priority 2000, published 2003)
Where a name gives a salt, the structure may show the parent alone.

System: Rat white adipocytes
Experiment: Inhibition of the differentiation of adipocytes (Oil Red O)
Type: cell-based
Conditions: 100 nM test compound, 5 days, Oil Red O ABS550, control = 100%, blank = 0%, Table 3; for activity at 0.1 µM: Rattus norvegicus, Adipocyte, 120 h, read-out: Rate of Differentiation (%)
Method in brief: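 Rat white preadipocytes, 5,000 cells/well, given differentiation medium with compound at 100 nM final (0.1% DMSO) for 5 days at 37 °C. Lipid stained with Oil Red O, eluted in DMSO, read at 550 nm; differentiation % relative to DMSO control (100%) and blank (0%).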

SMILES	activity at 0.1 µM [%]	other results
N#Cc1cccc(NC(=O)c2cc([N+](=O)[O-])ccc2Cl)c1 [Example 21, N-(3-Cyanophenyl)-(2-chloro-5-nitrophenyl)carboxamide]	63	
O=C(Nc1ccc([N+](=O)[O-])cc1)c1cc([N+](=O)[O-])ccc1Cl [Example 23, N-(4-Nitrophenyl)-(2-chloro-5-nitrophenyl)carboxamide]	57.7	
O=C(Nc1ccc([N+](=O)[O-])cn1)c1cc([N+](=O)[O-])ccc1Cl [Example 24, N-(5-Nitropyridin-2-yl)-(2-chloro-5-nitrophenyl)carboxamide]	59.1	
O=C(Nc1cccc([N+](=O)[O-])c1)c1cc([N+](=O)[O-])ccc1Cl [Example 25, N-(3-Nitrophenyl)-(2-chloro-5-nitrophenyl)carboxamide]	84	
O=C(Nc1cccc(C(=O)N2CCCC2)c1)c1cc([N+](=O)[O-])ccc1Cl [Example 31]		Rate of Differentiation (%): 77.2%
O=C(Nc1ccncc1)c1cc([N+](=O)[O-])ccc1Cl [Example 49, N-(4-Pyridyl)-(2-chloro-5-nitrophenyl)carboxamide]	71	
O=C(Nc1ccc(Cl)nc1)c1cc([N+](=O)[O-])ccc1Cl [Example 62, N-(6-Chloropyridin-3-yl)-(2-chloro-5-nitrophenyl)carboxamide]	68.5	
O=C(Nc1ccc(NC(=O)c2cc([N+](=O)[O-])ccc2Cl)nc1)c1cc([N+](=O)[O-])ccc1Cl [Example 64, 2,5-bis(2-Chloro-5-nitrobenzoylamino)pyridine]	85.5	
O=C(Nc1nc2cc(Cl)ccc2o1)c1cc([N+](=O)[O-])ccc1Cl [Example 75, N-(5-Chlorobenzoxazol-2-yl)-(2-chloro-5-nitrophenyl)carboxamide]	88.6	
O=C(Nc1ncc(Br)cn1)c1cc([N+](=O)[O-])ccc1Cl [Example 77, N-(5-Bromopyrimidin-2-yl)-(2-chloro-5-nitrophenyl)carboxamide]	68	
Nc1ccc(-c2ccc(NC(=O)c3cc([N+](=O)[O-])ccc3Cl)cc2)cc1 [Example 88, N-[4-(4-Aminophenyl)phenyl]-(2-chloro-5-nitrophenyl)carboxamide mono-hydrochloride]		Rate of Differentiation (%) (mono-hydrochloride): 63.3%
CS(=O)(=O)Nc1ccc(-c2ccc(NC(=O)c3cc([N+](=O)[O-])ccc3Cl)cc2)cc1 [Example 93, N-[4-[4-(Methanesulfonylamino)phenyl]phenyl]-(2-chloro-5-nitrophenyl)carboxamide]	62.9	
Cc1ccc(S(=O)(=O)Nc2ccc(-c3ccc(NC(=O)c4cc([N+](=O)[O-])ccc4Cl)cc3)cc2)cc1 [Example 94, N-[4-[4-(4-Toluenesulfonylamino)phenyl]phenyl]-(2-chloro-5-nitrophenyl)carboxamide]	68.8	
CC(=O)Nc1ccc(-c2ccc(NC(=O)c3cc([N+](=O)[O-])ccc3Cl)cc2)cc1 [Example 118, N-[4-(4-Acetylaminophenyl)phenyl]-(2-chloro-5-nitrophenyl)carboxamide]	53.6	
O=C(Nc1ccc(-c2ccc(NC(=O)c3cc([N+](=O)[O-])ccc3Cl)cc2)cc1)c1ccccc1 [Example 120, N-[4-(4-Benzoylaminophenyl)phenyl]-(2-chloro-5-nitrophenyl)carboxamide]	79.8	
O=C(Nc1ccc(-c2ccc(NC(=O)c3cc([N+](=O)[O-])ccc3Cl)cc2)cc1)c1cccnc1 [Example 124, N-[4-[4-(Pyridin-3-ylcarbonylamino)phenyl]phenyl]-(2-chloro-5-nitrophenyl)carboxamide]	84.2	
O=C(Nc1ccc(-c2ccc(NC(=O)c3cc([N+](=O)[O-])ccc3Cl)cc2)cc1)c1ccncc1 [Example 126, N-[4-[4-(Pyridin-4-ylcarbonylamino)phenyl]phenyl]-(2-chloro-5-nitrophenyl)carboxamide]	75.2	
CCS(=O)(=O)Nc1ccc(-c2ccc(NC(=O)c3cc([N+](=O)[O-])ccc3Cl)cc2)cc1 [Example 130, N-[4-(4-Ethanesulfonylaminophenyl)phenyl]-(2-chloro-5-nitrophenyl)carboxamide]	64	
Cl.O=C(Nc1ccncc1)c1cc([N+](=O)[O-])ccc1Cl [Example 146, N-(Pyridin-4-yl)-(2-chloro-5-nitrophenyl)carboxamide Hydrochloride]		Rate of Differentiation (%): 78.2%
Cc1ccc(C(=O)Nc2nc3ccc(NC(=O)c4cc([N+](=O)[O-])ccc4Cl)cc3s2)cc1 [Example 149, N-[2-(4-Methylbenzoylamino)benzothiazol-6-yl]-(2-chloro-5-nitrophenyl)carboxamide]	80.3	

SMILES	activity at 0.1 µM [%]	other results
CC(=O)c1ccc(NC(=O)c2cc([N+](=O)[O-])ccc2Cl)cc1 [Example 155, N-(4-Acetylphenyl)-(2-chloro-5-nitrophenyl)carboxamide]	82.7	
O=C(Nc1ccc(-n2ccnc2)cc1)c1cc([N+](=O)[O-])ccc1Cl [Example 174, N-[4-(Imidazol-1-yl)phenyl]-(2-chloro-5-nitrophenyl)carboxamide]	68.8	
O=C(Nc1ccc(-c2ccc(N3CCCCC3)cc2)cc1)c1cc([N+](=O)[O-])ccc1Cl [Example 177, N-[4-[4-(Piperidin-1-yl)phenyl]phenyl]-(2-chloro-5-nitrophenyl)carboxamide]	14	
O=C(Nc1ccc(N2CCN(C(=O)c3ccccc3)CC2)cc1)c1cc([N+](=O)[O-])ccc1Cl [Example 184, N-[4-(4-Benzoylpiperazin-1-yl)phenyl]-(2-chloro-5-nitrophenyl)carboxamide]	46.6	
CC(C)(C)OC(=O)Nc1ccc(-c2csc(NC(=O)c3cc([N+](=O)[O-])ccc3Cl)n2)cc1 [Example 190, N-[4-(4-tert-Butoxycarbonylaminophenyl)thiazol-2-yl]-(2-chloro-5-nitrophenyl)carboxamide]	64.2	
Nc1ccc(-c2ccc(NC(=O)c3cc([N+](=O)[O-])ccc3Cl)cc2)cc1 [Example 192, N-[4-(4-Aminophenyl)phenyl]-(2-chloro-5-nitrophenyl)carboxamide]		Rate of Differentiation (%): 17.6%
CCCN(CCC)c1ccc(-c2ccc(NC(=O)c3cc([N+](=O)[O-])ccc3Cl)cc2)cc1 [Example 194, N-[4-[4-(N,N-Dipropylamino)phenyl]phenyl]-(2-chloro-5-nitrophenyl)carboxamide]	37.1	
CCCCNc1ccc(-c2ccc(NC(=O)c3cc([N+](=O)[O-])ccc3Cl)cc2)cc1 [Example 203, N-[4-[4-(N-Butylamiino)phenyl]phenyl]-(2-chloro-5-nitrophenyl)carboxamide]		Rate of Differentiation (%): 32.6%
CCCNc1ccc(-c2ccc(NC(=O)c3cc([N+](=O)[O-])ccc3Cl)cc2)cc1 [Example 204, N-[4-[4-(N-Propylamino)phenyl]phenyl]-(2-chloro-5-nitrophenyl)carboxamide]	38.3	
CCNc1ccc(-c2ccc(NC(=O)c3cc([N+](=O)[O-])ccc3Cl)cc2)cc1 [Example 205, N-[4-[4-(N-Ethylamino)phenyl]phenyl]-(2-chloro-5-nitrophenyl)carboxamide]	39.8	
CCCCCN(CCCC)c1ccc(-c2ccc(NC(=O)c3cc([N+](=O)[O-])ccc3Cl)cc2)cc1 [Example 206, N-[4-[4-(N-Butyl-N-pentylamino)phenyl]phenyl]-(2-chloro-5-nitrophenyl)carboxamide]	30.6	
CCCCN(CCCC)c1ccc(-c2ccc(NC(=O)c3cc([N+](=O)[O-])ccc3Cl)cc2)cc1 [Example 207, N-[4-[4-(N,N-Dibutylamino)phenyl]phenyl]-(2-chloro-5-nitrophenyl)carboxamide]	32.7	
CCCCN(CCC)c1ccc(-c2ccc(NC(=O)c3cc([N+](=O)[O-])ccc3Cl)cc2)cc1 [Example 208, N-[4-[4-(N-Butyl-N-propylamino)phenyl]phenyl]-(2-chloro-5-nitrophenyl)carboxamide]	35.1	
CCCCN(CC)c1ccc(-c2ccc(NC(=O)c3cc([N+](=O)[O-])ccc3Cl)cc2)cc1 [Example 209, N-[4-[4-(N-Butyl-N-ethylamino)phenyl]phenyl]-(2-chloro-5-nitrophenyl)carboxamide]	40.1	
CCCN(CC)c1ccc(-c2ccc(NC(=O)c3cc([N+](=O)[O-])ccc3Cl)cc2)cc1 [Example 212, N-[4-[4-(N-Ethyl-N-propylamino)phenyl]phenyl]-(2-chloro-5-nitrophenyl)carboxamide]	44	
CCCCCN(CCCCC)c1ccc(-c2ccc(NC(=O)c3cc([N+](=O)[O-])ccc3Cl)cc2)cc1 [Example 214, N-[4-[4-(N,N-Dipentylamino)phenyl]phenyl]-(2-chloro-5-nitrophenyl)carboxamide]	31.7	
CCCCCN(CC)c1ccc(-c2ccc(NC(=O)c3cc([N+](=O)[O-])ccc3Cl)cc2)cc1 [Example 216, N-[4-[4-(N-Ethyl-N-pentylamino)phenyl]phenyl]-(2-chloro-5-nitrophenyl)carboxamide]	32.1	
CCN(CC)c1ccc(-c2ccc(NC(=O)c3cc([N+](=O)[O-])ccc3Cl)cc2)cc1 [Example 217, N-[4-[4-(N,N-Diethylamino)phenyl]phenyl]-(2-chloro-5-nitrophenyl)carboxamide]	21	
CCN(C)c1ccc(-c2ccc(NC(=O)c3cc([N+](=O)[O-])ccc3Cl)cc2)cc1 [Example 218, N-[4-[4-(N-Ethyl-N-methylamino)phenyl]phenyl]-(2-chloro-5-nitrophenyl)carboxamide]	31.7	
O=C(Nc1ccc(-c2ccc(NC(=S)Nc3cccc(F)c3)cc2)cc1)c1cc([N+](=O)[O-])ccc1Cl [Example 245, N-[4-[4-[(3-Fluorophenyl)aminothiocarbonylamino]phenyl]phenyl]-(2-chloro-5-nitrophenyl)carboxamide]	36.1	
